Measured values published in PMC10041525, “New Dual Inhibitors of Bacterial Topoisomerases with Broad-Spectrum Antibacterial Activity and In Vivo Efficacy against Vancomycin-Intermediate Staphylococcus aureus” (Journal of Medicinal Chemistry, 2023).
In brackets after ≈: the same amount, converted by molar mass. Like-named read-outs stand apart in the source and are kept apart here.

Tests used:
DNA gyrase from E. coli = target: T1, DNA gyrase from E. coli (Escherichia coli, UniProt P0AES6); assay: supercoiling HTS plate assay; assay type: biochemical; conditions: IC50 [nM] E. coli DNA gyrase
T1 construct: purchased Inspiralis
Procedure: (§1) All compounds were tested for their inhibitory activities against DNA gyrase and topo IV from E. coli in supercoiling and relaxation high-throughput plate assays, respectively. Our new series of inhibitors were then tested against a panel of Gram-positive and Gram-negative bacteria.
(§2) Seven concentrations of the inhibitors were used to determine IC50 values which were then calculated with GraphPad Prism 6.0 software. Three independent measurements were performed to determine IC50 values, and mean values are reported as the final result.

[1] = tested on: Enterobacter cloacae spp. cloacae ATCC 13047; assay: MIC broth microdilution (CLSI); assay type: cell-based; conditions: Enterobacter cloacae, ATCC13047; read-out: MIC
Procedure: (§3) MICs (Tables 1 and S1–S3) were determined with a standard serial broth microdilution technique according to Clinical and Laboratory Standards Institute (CLSI) guidelines.[45] Cation-adjusted Mueller Hinton broth 2 (MHBII) was used for bacterial growth under standard laboratory conditions and for antimicrobial susceptibility tests. MHBII broth was prepared by dissolving 22 g of MHBII powder [containing beef extract (3 g), acid hydrolysate of casein (17.5 g), and starch (1.5 g); Becton Dickinson and Co.] in 1 L of water. To prepare MHBII agar, 14 g of agar (Bacto; Molar Chemicals) was added to 1 L of broth.
(§4) Bacterial strains were inoculated onto MHBII agar plates and grown overnight at 37 °C. Next, three individual colonies from each strain were inoculated into 1 mL of MHBII medium and propagated at 37 °C overnight, with agitation at 250 rpm. For Enterococcus sp., the cells were plated in brain–heart infusion [(BHI) medium] agar plates, and BHI broth was used to determine the MICs. […] The highest final DMSO concentration in the experiments was 0.64% (in the case of the 64 μg/mL concentration of the inhibitor). Following the dilutions, each well was seeded with 5 × 10^4 bacterial cells (in 100 μL final volume). Each measurement was performed in three parallel replicates, and to avoid possible edge effects in the microwell plates, the outside rows (A, H) were filled with sterile medium. Following the inoculations, the plates were covered with the lids and wrapped in polyethylene plastic bags, to minimize evaporation but to allow O2 transfer. The plates were incubated at 37 °C under continuous shaking at 150 rpm for 18 h. After incubation, the OD600 of each well was measured using a microplate reader (Synergy 2; Biotek). The MICs were defined as the antibiotic concentrations which inhibited the growth of the bacterial cultures; that is, the drug concentration where the average OD600 increment of the three technical replicates was below 1.5-fold the background OD increment.

[2] = tested on: S. aureus (MRSA) ATCC 43300; assay: MIC broth microdilution (CLSI); assay type: cell-based; conditions: Staphylococcus aureus
Procedure: as §3, §4

E. coli ATCC 25922 = assay: MIC broth microdilution (CLSI); assay type: cell-based; conditions: Escherichia coli, ATCC25922; read-out: MIC
Procedure: as §3, §4

P. aeruginosa ATCC 27853 = assay: MIC broth microdilution (CLSI); assay type: cell-based; conditions: Pseudomonas aeruginosa, ATCC27853; read-out: MIC
Procedure: as §3, §4

[3] = tested on: S. aureus (VISA) ATCC 700699; assay: MIC broth microdilution (CLSI); assay type: cell-based; conditions: Staphylococcus aureus; read-out: MIC
Procedure: as §3, §4

E. faecium ATCC 700221 = assay: MIC broth microdilution (CLSI); assay type: cell-based
Procedure: as §3, §4

K. pneumoniae ATCC 10031 = assay: MIC broth microdilution (CLSI); assay type: cell-based
Procedure: as §3, §4

A. baumannii ATCC 17978 = assay: MIC broth microdilution (CLSI); assay type: cell-based; conditions: Acinetobacter baumannii, ATCC17978
Procedure: as §3, with “Cation-adjusted” for “MICs (Tables 1 and S1–S3) were determined with a standard serial broth microdilution technique according to Clinical and Laboratory Standards Institute (CLSI) guidelines.[45] Cation-adjusted”
(§5) Bacterial strains were inoculated onto MHBII agar plates and grown overnight at 37 °C. Next, three individual colonies from each strain were inoculated into 1 mL of MHBII medium and propagated at 37 °C overnight, with agitation at 250 rpm. For Enterococcus sp., the cells were plated in brain–heart infusion [(BHI) medium] agar plates, and BHI broth was used to determine the MICs. […] Following the dilutions, each well was seeded with 5 × 10^4 bacterial cells (in 100 μL final volume). Each measurement was performed in three parallel replicates, and to avoid possible edge effects in the microwell plates, the outside rows (A, H) were filled with sterile medium. Following the inoculations, the plates were covered with the lids and wrapped in polyethylene plastic bags, to minimize evaporation but to allow O2 transfer. […] After incubation, the OD600 of each well was measured using a microplate reader (Synergy 2; Biotek).

S. aureus ATCC 29213 = assay: MIC broth microdilution (CLSI); assay type: cell-based; conditions: Staphylococcus aureus, ATCC29213
Procedure: as §3, with “Cation-adjusted” for “MICs (Tables 1 and S1–S3) were determined with a standard serial broth microdilution technique according to Clinical and Laboratory Standards Institute (CLSI) guidelines.[45] Cation-adjusted”
as §5

topo IV from E. coli = target: T2, topo IV from E. coli (Escherichia coli, UniProt P20083); assay: relaxation HTS plate assay; assay type: biochemical
T2 construct: purchased Inspiralis
Procedure: as §1, §2

[4] = tested on: Enterococcus faecalis ATCC 29212; assay: MIC broth microdilution (CLSI); assay type: cell-based, E. faecalis; conditions: Enterococcus faecalis, ATCC29212; read-out: MIC
Procedure: as §3, §4

physchem = assay type: physicochemical; conditions: phosphate-buffered saline (PBS)
Procedure: For the PBS, 2.38 g of disodium hydrogen phosphate dodecahydrate, 0.19 g of potassium dihydrogen phosphate, and 8.0 g of sodium chloride were added to distilled water (900 mL), and the solution was mixed overnight. […] Samples were prepared by weighing the exact mass of solid compounds (about 1 mg), and then, the appropriate volume of PBS was added to reach the final concentration of ∼1 mg/mL. […] The supernatant was diluted 3× with a 1:1 mixture of 0.1% TFA in water and acetonitrile and analyzed by HPLC. For the 7-point calibration curves, concentrated stock solutions of the compounds were prepared at concentrations of 10 and 0.5 mM in DMSO, which were diluted with a 1:1 mixture of 0.1% TFA in water and acetonitrile to the desired final concentrations and analyzed by HPLC. Results are given in μM as an average value of two independent experiments. For details on calibration curves, concentrations, analytical method, and HPLC method, see the Supporting Information.
Thermodynamic solubility assay
To determine thermodynamic solubility of compounds in PBS, calibration curves for the assayed compounds were prepared using seven concentrations. First, DMSO stock solutions of compounds at 10 mM and 0.5 mM concentration were prepared and then diluted (0.1% TFA in […]
Quality control (QC) samples were diluted from stock solutions with a 1:1 mixture of 0.1% TFA in water and acetonitrile to final concentrations of 60 µM, 20 µM, and 2 µM (6 µM, 2 µM, and 0.2 µM for 7f or 0.6 µM, 0.2 µM, and 0.02 µM for 7g).
Analytical reversed-phase UHPLC analyses were performed on Thermo Scientific Dionex UltiMate 3000 modular system (Thermo Fisher Scientific Inc., MA, USA). Waters Acquity UPLC® HSS C18 SB column (2.1 × 50 mm, 1.8 μm; Waters, Milford, MA, USA) was used at T […]
Mobile phase consisted of 0.1% trifluoroacetic acid in ultrapure water (solvent A) and acetonitrile […]
The obtained data was processed in Chromeleon CDS software (Thermo Fisher Scientific Inc., […]
Analytical method was tested for accuracy, precision and linear rang. Accuracy was […]
(or 2 or 0.2) µM and 60 (or 6 or 0.6) µM) to their true values and expressed in (%). Values were […]
Method repeatability was determined by calculating the RSD from the separately prepared and analysed quality control samples (n = 3). […] Linearity of the […]
method (1 (or 0.1 or 0.01) µM to 100 (or 10 or 1) µM) was evaluated from the 7-point calibration […]
Solubility was determined in two independent experiments and results were calculated in […]

[5] = read-out: MIC [µg/mL](S. aureus MRSA ATCC4330)
[6] = Enterococcus faecium, ATCC700221, read-out: MIC
[7] = Klebsiella pneumoniae, ATCC10031, read-out: MIC
[8] = read-out: MIC [µg/mL] (A. baumannii ATCC 17978)
[9] = read-out: MIC [µg/mL](S. aureus ATCC 29213)
[10] = read-out: IC50 [nM] E. coli TopoIV

T2 sequence (P0AFI2 whole entry): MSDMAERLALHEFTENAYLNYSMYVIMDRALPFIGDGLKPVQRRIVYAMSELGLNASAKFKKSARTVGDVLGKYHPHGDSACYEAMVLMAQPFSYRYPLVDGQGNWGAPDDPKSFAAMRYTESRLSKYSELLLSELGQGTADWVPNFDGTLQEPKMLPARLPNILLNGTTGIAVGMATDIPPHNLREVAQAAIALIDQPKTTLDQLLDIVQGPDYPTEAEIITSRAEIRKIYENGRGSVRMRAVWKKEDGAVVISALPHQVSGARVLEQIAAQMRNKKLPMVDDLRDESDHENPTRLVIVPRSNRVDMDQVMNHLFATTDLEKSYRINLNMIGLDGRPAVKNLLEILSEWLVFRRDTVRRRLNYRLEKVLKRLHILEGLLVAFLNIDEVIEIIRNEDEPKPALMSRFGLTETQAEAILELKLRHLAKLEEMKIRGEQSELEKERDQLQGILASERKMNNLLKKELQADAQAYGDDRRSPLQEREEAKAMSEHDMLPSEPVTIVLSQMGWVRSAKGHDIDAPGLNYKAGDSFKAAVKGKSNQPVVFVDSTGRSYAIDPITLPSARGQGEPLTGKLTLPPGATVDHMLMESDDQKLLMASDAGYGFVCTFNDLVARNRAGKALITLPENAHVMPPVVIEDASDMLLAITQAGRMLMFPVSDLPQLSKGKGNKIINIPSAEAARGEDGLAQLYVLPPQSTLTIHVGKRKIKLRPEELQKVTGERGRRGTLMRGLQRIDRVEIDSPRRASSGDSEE
T2 sequence (P20083 whole entry): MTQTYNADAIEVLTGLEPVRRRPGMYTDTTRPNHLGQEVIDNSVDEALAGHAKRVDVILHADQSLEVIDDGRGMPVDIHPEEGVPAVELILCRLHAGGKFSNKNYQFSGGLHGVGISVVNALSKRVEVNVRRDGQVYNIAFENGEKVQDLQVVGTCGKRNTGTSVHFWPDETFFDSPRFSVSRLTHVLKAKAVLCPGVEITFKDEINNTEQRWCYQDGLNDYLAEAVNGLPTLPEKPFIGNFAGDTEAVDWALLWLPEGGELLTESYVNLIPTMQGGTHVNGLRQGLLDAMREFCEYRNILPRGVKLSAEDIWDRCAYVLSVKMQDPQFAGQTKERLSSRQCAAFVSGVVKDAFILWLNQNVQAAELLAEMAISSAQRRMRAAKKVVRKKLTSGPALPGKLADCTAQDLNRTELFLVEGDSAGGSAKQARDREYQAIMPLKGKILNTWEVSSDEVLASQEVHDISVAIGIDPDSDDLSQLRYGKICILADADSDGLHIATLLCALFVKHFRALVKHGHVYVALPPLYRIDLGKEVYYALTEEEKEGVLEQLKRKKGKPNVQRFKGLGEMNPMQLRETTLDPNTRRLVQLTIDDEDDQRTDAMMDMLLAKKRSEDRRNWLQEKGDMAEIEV

Structure (SMILES) | IC50 (DNA gyrase from E. coli) [nM] | MIC [1] [µg/mL] | MIC ([2]; read-out: MIC) [µg/mL] | MIC [2, 5] [µg/mL] | MIC (E. coli ATCC 25922) [µg/mL] | MIC (P. aeruginosa ATCC 27853) [µg/mL] | MIC [3] [µg/mL] | MIC (E. faecium ATCC 700221; [6]) [µg/mL] | MIC (K. pneumoniae ATCC 10031; [7]) [µg/mL] | MIC (A. baumannii ATCC 17978; read-out: MIC) [µg/mL] | MIC (A. baumannii ATCC 17978; [8]) [µg/mL] | MIC (S. aureus ATCC 29213; read-out: MIC) [µg/mL] | MIC (S. aureus ATCC 29213; [9]) [µg/mL] | IC50 (topo IV from E. coli; [10]) [nM] | MIC [4] [µg/mL] | IC50 (topo IV from E. coli; IC50) [nM] | IC50 (topo IV from E. coli; IC50 [nM] E. coli TopoIV) [nM] | further results
Cc1[nH]c(C(=O)Nc2nc3c(N4CCCC4)cc(C(=O)O)cc3s2)c(Cl)c1Cl [7j, 2-(3,4-Dichloro-5-methyl-1H-pyrrole-2-carboxamido)-4-(pyrrolidin-1-yl)benzo[d]thiazole-6-carboxylic Acid] | < 10 | > 32 | 0.125 | 0.125 | 16 | 4 | 0.0625 | 0.25 | 8 | 4 | 4 | 0.25 | 0.25 | 68 ± 16 | 0.125 |  |  | IC50 (topo IV from E. coli; read-out: IC50): < 100 nM
Cc1[nH]c(C(=O)Nc2nc3c(N4CCOC4=O)cc(C(=O)O)cc3s2)c(Cl)c1Cl [7m, 2-(3,4-Dichloro-5-methyl-1H-pyrrole-2-carboxamido)-4-(2-oxooxazolidin-3-yl)benzo[d]thiazole-6-carboxylic Acid] | < 10 | > 64 | 64 | 64 | > 64 | > 64 | 8 | 4 | 32 | > 64 | > 64 | 64 | 64 | 180 ± 16 | 4 |  |  | MIC (E. faecium ATCC 700221): 4 µg/mL
Cc1[nH]c(C(=O)Nc2nc3c(N4CCC5(CC4)OCCO5)cc(C(=O)O)cc3s2)c(Cl)c1Cl [7r, 2-(3,4-Dichloro-5-methyl-1H-pyrrole-2-carboxamido)-4-(1,4-dioxa-8-azaspiro[4.5]decan-8-yl)benzo[d]thiazole-6-carboxylic Acid] | 17 ± 11 | 32 | < 0.0312 | < 0.0312 | 4 | 8 | < 0.0312 | < 0.0312 | 2 | 8 | 8 | < 0.0312 | < 0.0312 |  | < 0.0312 |  |  | solubility thermodynamic at 24 h (physchem; pH 7.4, PBS pH 7.4, read-out: thermodynamic solubility, Experiment 1): 26.7 µM (≈ 13.7 µg/mL); solubility thermodynamic at 24 h (physchem; pH 7.4, PBS pH 7.4, read-out: thermodynamic solubility, Experiment 2): 27.3 µM (≈ 13.9 µg/mL); solubility thermodynamic at 24 h (physchem; pH 7.4, thermodynamic solubility (pH = 7.4), PBS, 37 °C, 24 h, mean of two): 27 µM (≈ 13.8 µg/mL)
Cc1[nH]c(C(=O)Nc2nc3c(N4CC[S+]([O-])CC4)cc(C(=O)O)cc3s2)c(Cl)c1Cl [7s, 2-(3,4-Dichloro-5-methyl-1H-pyrrole-2-carboxamido)-4-(1-oxidothiomorpholino)benzo[d]thiazole-6-carboxylic Acid] | < 10 | > 64 | 64 | 64 | > 64 | > 64 | > 64 | 16 | 32 | > 64 | > 64 | > 64 | > 64 |  | 16 | < 100 | 72 ± 3 | 
Cc1[nH]c(C(=O)Nc2nc3c(N4CC[C@H](N)C4)cc(C(=O)O)cc3s2)c(Cl)c1Cl.Cl [8a, (S)-1-(6-Carboxy-2-(3,4-dichloro-5-methyl-1H-pyrrole-2-carboxamido)benzo[d]thiazol-4-yl)pyrrolidin-3-aminium Chloride] | < 10 | > 32 | 16 | 16 | > 32 | > 32 | 8 | 32 | 4 | > 32 | > 32 | 32 | 32 |  | 32 | < 100 | 38 ± 10 | MIC (K. pneumoniae ATCC 10031): 4 µg/mL
